Test results from patent US20120121540A1 (priority 2007, published 2012).

Assay: HCV replicon assay (luciferase reporter, ET cell line)
Type: cell-based
Conditions: Hepatitis C virus, HCV replicon luciferase activity in ET cells
Method in brief: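 EC50 and, via WST-1 cytotoxicity, TC50 were fitted with a Hill-coefficient equation to % inhibition across 10 two-fold dilutions. Compounds at 0.1 nM-[…] with 0.5% DMSO were applied 24 h post-seeding to replicon-bearing ET cells (luc-ubi-neo/NS3-5B, adaptive mutations). Firefly luciferase signal was measured after 48-72 h.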

Structure (SMILES) | inhibition at 10 µM
O=C(Cc1cccs1)NCc1cn2cc(-c3ccoc3)cc(C(F)(F)F)c2n1 [Compound 388, N-(6-Furan-3-yl-8-trifluoromethyl-imidazo[1,2-a]pyridin-2-ylmethyl)-2-thiophen-2-yl-acetamide] | 97.2%
Cc1nc(C)c(-c2cc(C(F)(F)F)c3nc(C(=O)NCc4cccs4)c(Cl)n3c2)s1 [Compound 289, 3-Chloro-6-(2,4-dimethyl-thiazol-5-yl)-8-trifluoromethyl-imidazo[1,2-a]pyridine-2-carboxylic Acid (thiophen-2-ylmethyl)-amide] | 30.3%
O=C(NCc1cccs1)c1nc2c(Br)cc(-c3ccccc3)cn2c1Cl [Compound 371, 8-Bromo-3-chloro-6-phenyl-imidazo[1,2-a]pyridine-2-carboxylic Acid (thiophen-2-ylmethyl)-amide] | 78.6%
Cn1cc(-c2cc(C(F)(F)F)c3nc(C(=O)N4CCC(c5cccc(F)c5)C4)c(Cl)n3c2)cn1 (centres unmarked) [Compound 624, [3-Chloro-6-(1-methyl-1H-pyrazol-4-yl)-8-trifluoromethyl-imidazo[1,2-a]pyridin-2-yl]-[3-(3-fluoro-phenyl)-pyrrolidin-1-yl]-methanone] | 63.9%
O=C(c1nc2c(C(F)(F)F)cc(-c3ccoc3)cc2[nH]1)N1CCC(c2ccc(F)cc2)C1 (centres unmarked) [Compound 351, [3-(4-Fluoro-phenyl)-pyrrolidin-1-yl]-(6-furan-3-yl-4-trifluoromethyl-1H-benzoimidazol-2-yl)-methanone] | 52.1%
O=C(NCc1cccs1)c1cc2cc(-c3ccccc3)cc(Cl)c2[nH]1 [Compound 106, 7-Chloro-5-phenyl-1H-indole-2-carboxylic Acid (thiophen-2-ylmethyl)-amide] | 60.8%
O=C(c1nc2c(C(F)(F)F)cc(-c3ccoc3)cn2c1Cl)N1CC(NS(=O)(=O)Cc2ccccc2)C1 [Compound 493, N-[1-(3-Chloro-6-furan-3-yl-8-trifluoromethyl-imidazo[1,2-a]pyridine-2-carbonyl)-azetidin-3-yl]-C-phenyl-methanesulfonamide] | 91.4%
O=C(NCc1cccs1)c1nc2c(C(F)(F)F)cc(-c3ccccc3)cn2c1Cl [Compound 177, 3-Chloro-6-phenyl-8-trifluoromethyl-imidazo[1,2-a]pyridine-2-carboxylic acid (thiophen-2-ylmethyl)-amide] | 93.2%
CN(C)CCNC(=O)[C@@H]1CN(C(=O)c2nc3c(C(F)(F)F)cc(-c4ccoc4)cn3c2Cl)C[C@H]1c1ccccc1 (stereo in doubt) [Compound 224, 1-(3-Chloro-6-furan-3-yl-8-trifluoromethyl-imidazo[1,2-a]pyridine-2-carbonyl)-4-phenyl-pyrrolidine-3-carboxylic Acid (2-dimethylamino-ethyl)-amide] | 98.7%
COC(=O)c1cccc(C2CCN(C(=O)c3nc4c(C(F)(F)F)cc(-c5ccoc5)cn4c3Cl)C2)c1 (centres unmarked) [Compound 452, 3-(1-(3-Chloro-6-furan-3-yl-8-trifluoromethyl-imidazo[1,2-a]pyridine-2-carbonyl)-pyrrolidin-3-yl)-benzoic acid methyl ester] | 87.6%
O=C(c1nc2c(C(F)(F)F)cc(-c3ccoc3)cn2c1Cl)N1CCC(c2ccc(F)cc2)CC1 [Compound 277, (3-Chloro-6-furan-3-yl-8-trifluoromethyl-imidazo[1,2-a]pyridine-2-yl)-[4-(4-fluoro-phenyl)-piperidin-1-yl]-methanone] | 71.7%
COc1ccccc1C1CCN(C(=O)c2nc3c(C(F)(F)F)cc(-c4ccoc4)cn3c2Cl)C1 (centres unmarked) [Compound 463, (3-Chloro-6-furan-3-yl-8-trifluoromethyl-imidaz [1,2-a]pyridin-2-yl)-[3-(2-methoxy-phenyl)-pyrrolidin-1-yl]-methanone] | 80.6%
CS(=O)(=O)N[C@H]1CN(C(=O)c2nc3c(C(F)(F)F)cc(-c4ccoc4)cn3c2Cl)C[C@@H]1c1ccccc1 (stereo in doubt) [Compound 458, N-(-1-(3-Chloro-6-furan-3-yl-8-trifluoromethyl-imidazo[1,2-a]pyridine-2-carbonyl)-4-phenyl-pyrrolidin-3-yl)-methanesulfonamide] | 64.6%
O=C(c1nc2c(C(F)(F)F)cc(-c3ccoc3)cn2c1Cl)N1CC=C(c2cccs2)C1 [Compound 422, (3-Chloro-6-furan-3-yl-8-trifluoromethyl-imidazo[1,2-a]pyridin-2-yl)-(3-thiophen-2-yl-2,5-dihydro-pyrrol-1-yl)-methanone] | 99.8%
O=C(NCC1CCCO1)c1nc2c(C(F)(F)F)cc(-c3ccco3)cn2c1Cl (centres unmarked) [Compound 184, 3-Chloro-6-furan-2-yl-8-trifluoromethyl-imidazo[1,2-a]pyridine-2-carboxylic acid (tetrahydro-furan-2-ylmethyl)-amide] | 84.4%
O=C(NCc1cccs1)c1cc2cc(-c3ccco3)cc(Cl)n2n1 [Compound 145, 7-Chloro-5-furan-2-yl-pyrazolo[1,5-a]pyridine-2-carboxylic Acid (thiophen-2-ylmethyl)-amide] | 49.8%
CNC(=O)Cc1c(C(=O)N2CCC(c3ccc(F)cc3)C2)nc2c(C(F)(F)F)cc(-c3ccoc3)cn12 (centres unmarked) [Compound 245, 2-{2-[3-(4-Fluoro-phenyl)-pyrrolidine-1-carbonyl]-6-furan-3-yl-8-trifluoromethyl-imidazo[1,2-a]pyridin-3-yl}-N-methyl-acetamide] | 63.9%
O=C(c1nc2c(C(F)(F)F)cc(-c3ccoc3)cn2c1Cl)N1CC(NS(=O)(=O)c2cccc(F)c2)C1 [Compound 495, N-[1-(3-Chloro-6-furan-3-yl-8-trifluoromethyl-imidazo[1,2-a]pyridine-2-carbonyl)-azetidin-3-yl]-3-fluoro-benzenesulfonamide] | 94.2%
O=C(NC1CN(S(=O)(=O)c2ccccc2)C1)c1nc2c(C(F)(F)F)cc(-c3ccoc3)cn2c1Cl [Compound 511, 3-Chloro-6-furan-3-yl-8-trifluoromethyl-imidazo[1,2-a]pyridine-2-carboxylic Acid (1-benzenesulfonyl-azetidin-3-yl)-amide] | 98.6%
O=C(NCc1ccc(F)cc1)NCc1cn2cc(-c3ccoc3)cc(C(F)(F)F)c2n1 [Compound 397, 1-(4-Fluoro-benzyl)-3-(6-furan-3-yl-8-trifluoromethyl-imidazo[1,2-a]pyridine-2-ylmethyl)-urea] | 21.9%
O=C(c1nc2c(C(F)(F)F)cc(-c3cn[nH]c3)cn2c1Br)N1CC=C(c2cscn2)CC1 [Compound 609, [3-Bromo-6-(1H-pyrazol-4-yl)-8-trifluoromethyl-imidazo[1,2-a]pyridin-2-yl]-(4-thiazol-4-yl-3,6-dihydro-2H-pyridin-1-yl)-methanone] | 94.1%
CCn1c(C(=O)N2CCC(c3ccc(F)cc3)C2)nc2cc(-c3ccoc3)cc(C(F)(F)F)c21 (centres unmarked) [Compound 353, (1-Ethyl-5-furan-3-yl-7-trifluoromethyl-1H-benzoimidazol-2-yl)-[3-(4-fluoro-phenyl)-pyrrolidin-1-yl]-methanone] | 3.5%
O=C(c1nc2c(C(F)(F)F)cc(-c3ccco3)cn2c1Cl)N1CCN(Cc2ccccc2)CC1 [Compound 324, (4-Benzyl-piperazin-1-yl)-(3-chloro-6-furan-2-yl-8-trifluoromethyl-imidazo[1,2-a]pyridin-2-yl)-methanone] | 34.6%
